Reference: PMC8857485, “Prostate secretory protein 94 inhibits sterol binding and export by the mammalian CAP protein CRISP2 in a calcium-sensitive manner” (The Journal of Biological Chemistry, 2022)
Counter-ions that a name gives are not always drawn. Like-named read-outs stand apart in the source and are kept apart here.

Key:
CRISP2 L98G = biological target: T1, CRISP2 L98G (Homo sapiens, UniProt P16562, L98G); test: MST binding to CRISP2 single mutant L98G; parameters: species or system mammalian; details: absence of PSP94, read-out: Kd, sterol binding by CRISP2 L98G
T1 construct: made in house; host or cells: E. coli
Text: This interaction is thus located outside the hydrophobic loop that harbors the sterol-binding CBM. Based on these structural considerations, it is thus not apparent why and how the interaction between PSP94 and CRISP2 would block sterol binding at the CBM. To investigate this question in more detail, we first performed computational docking studies to identify residues in CRISP2 that are critical for the interaction with PSP94. […] Two of these three interacting residues, N97 and L98, are conserved in all three CAP family members tested here, CRISP2, CRISP3, and Pry1 (Fig. 4A). […]
(§1) MST experiments were performed to assess protein–protein, protein–lipid, and protein–calcium interactions using a Monolith NT.115 (Nanotemper Technologies). […] The dissociation constant Kd was obtained by plotting the normalized fluorescence (Fnorm) against the logarithm of ligand concentration. […]
Quadruple mutant cells lacking the acyl-CoA synthetases FAA1 and FAA4 and the yeast CAP family members PRY1 and PRY3 (faa1∆ faa4∆ pry1∆ pry3∆) expressing different combinations of plasmid-borne copies of PRY1, CRISP2, and or PSP94, or their respective empty vectors (pRS423 or pRS426) were cultivated overnight. The export of fatty acids into the culture medium was then quantified. […]

Pry1 = biological target: T2, Pry1 (Saccharomyces cerevisiae, UniProt P47032); test: Microscale thermophoresis (MST) binding to Pry1; details: absence of PSP94, read-out: Kd, sterol binding by Pry1
T2 construct: made in house; host or cells: E. coli BL21
Text: (§2) To confirm the direct interaction of PSP94 with CRISP3 and to test whether PSP94 would also bind other CAP family members such as yeast Pry1, or CRISP2, we performed in vitro protein binding assay using microscale thermophoresis (MST). Therefore, PSP94 and the CAP family members, Pry1, CRISP2, and CRISP3, were expressed as fusion proteins with a C-terminal polyhistidine tag in Escherichia coli, and the proteins were affinity purified on nickel-NTA agarose beads. The purified CAP proteins were then fluorescently labeled using RED-tris-NTA and incubated with varying concentrations of PSP94. […] PSP94 thus has high binding affinity for all three CAP proteins tested, and it also binds the CAP domain of Pry1 (Pry1^CAP) alone.
DNA encoding proteins of interest were PCR amplified and cloned into NcoI and XhoI restriction sites of pET22b, which contains a PelB signal sequence to direct the secretion of expressed protein into the periplasmic space. […] Protein concentration was determined by Lowry assay using the Folin reagent and bovine serum albumin as protein standard.
as §1

CRISP2 = biological target: T3, CRISP2 (Homo sapiens, UniProt P16562); test: MST binding to CRISP2; parameters: species or system mammalian
T3 construct: made in house; host or cells: E. coli BL21
T3 sequence (P16562 22-243): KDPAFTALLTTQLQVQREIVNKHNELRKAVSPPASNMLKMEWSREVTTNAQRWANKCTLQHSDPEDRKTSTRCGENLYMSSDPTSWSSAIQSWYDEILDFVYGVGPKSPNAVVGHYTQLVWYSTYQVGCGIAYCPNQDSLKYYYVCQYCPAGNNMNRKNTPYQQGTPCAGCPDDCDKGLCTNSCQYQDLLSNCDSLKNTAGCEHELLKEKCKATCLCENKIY
Text: as §2
DNA encoding proteins of interest were PCR amplified and cloned into NcoI and XhoI restriction sites of pET22b, which contains a PelB signal sequence to direct the secretion of expressed protein into the periplasmic space. Plasmids were transformed into E. coli BL21, and proteins were expressed with a C-terminal polyhistidine tag. Different induction strategies were used: overnight induction with lactose at 24 °C for Pry1, CRISP2, and PSP94 and 6 h of induction with 0.4 mM IPTG at 24 °C for the CAP domain of Pry1. Cells were collected and lysed, and the soluble cell lysate was incubated with nickel-nitrilotriacetic acid beads as per the manufacturer instructions (Qiagen). Beads were washed and loaded onto a Ni^2+-NTA column, and proteins were eluted with a buffer containing 60 mM NaH2PO4, 300 mM NaCl, and 300 mM imidazole, pH 8.0. […] Protein concentration was determined by Lowry assay using the Folin reagent and bovine serum albumin as protein standard.
as §1

T2 sequence (P47032 20-299): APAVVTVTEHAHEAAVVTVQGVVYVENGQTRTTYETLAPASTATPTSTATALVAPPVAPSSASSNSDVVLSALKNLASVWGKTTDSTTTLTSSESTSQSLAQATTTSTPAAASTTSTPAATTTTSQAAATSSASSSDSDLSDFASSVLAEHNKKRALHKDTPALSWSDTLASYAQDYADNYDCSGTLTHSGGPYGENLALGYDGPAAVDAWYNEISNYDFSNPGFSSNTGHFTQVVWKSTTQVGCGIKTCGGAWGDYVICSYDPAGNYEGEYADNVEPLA
T1 sequence (P16562 22-243 L98G): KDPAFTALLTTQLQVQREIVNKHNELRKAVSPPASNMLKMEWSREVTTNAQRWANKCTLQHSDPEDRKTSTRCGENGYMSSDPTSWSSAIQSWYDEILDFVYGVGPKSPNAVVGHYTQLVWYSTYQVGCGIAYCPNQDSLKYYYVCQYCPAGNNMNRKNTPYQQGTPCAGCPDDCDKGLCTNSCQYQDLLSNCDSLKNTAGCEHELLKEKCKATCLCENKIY

Work on CC(C)CCC[C@@H](C)[C@H]1CC[C@H]2[C@@H]3CC=C4C[C@@H](OS(=O)(=O)O)CC[C@]4(C)[C@H]3CC[C@]12C [cholesterol sulfate] yielded a Kd (CRISP2 L98G) of 95 ± 2.1 µM, a Kd (Pry1) of 3 ± 1.7 µM and a Kd (CRISP2; PSP94^F24G preincubated 5 min at 24 °C, read-out: Kd, sterol binding by CRISP2 in presence of PSP94^F24G) of 9.7 ± 3.04 µM. It also gave a Kd (CRISP2; absence of PSP94, read-out: Kd, sterol binding by CRISP2) of 1.6 ± 0.9 µM.
